Assay results taken from patent US20100215579A1, “PHEN-NAPHTHALENE AND PHEN-QUINOLINE DERIVATIVES AND THEIR USE FOR BINDING AND IMAGING AMYLOID PLAQUES” (The Trustees of the University of Pennsylvania, priority 2007, published 2010).
Values belong to the compound of their own block, whether it stands above or below them.

Tests used:
[1] = target: T1, amyloid plaques (Homo sapiens, UniProt P05067); assay: Ki values of Phen-Nap, Nap-Phen derivatives (Ki binding data)
T1 construct: fibrillary Aβ plaques consisting predominately of aggregates of Aβ40 and Aβ42 peptides

[2] = Biodistribution in ICR mice after an iv injection; type: in vivo
From the text: Biodistribution in ICR Mice After an iv Injection of [^18F][4-(6-{2-[2-(2-Fluoro-ethoxy)-ethoxy]-ethoxy}-naphthalen-2-yl)-phenyl]-methyl-amine in 1% EtOH/0.1% BSA in Water
(% dose/organ, avg of 3 mice±SD)
(% dose/g, avg of 3 mice±SD)
Biodistribution in ICR Mice After an iv Injection of [^18F]19a in 3% EtOH/0.1% BSA in Water
Biodistribution in ICR Mice After an iv Injection of [^18F]34a in 5% EtOH/0.1% BSA in Water
Biodistribution in ICR Mice After an iv Injection of [^18F]32a in 1% EtOH/0.1% BSA in Water

[3] = Blood, 2 min after iv injection
[4] = Blood, 30 min after iv injection
[5] = Bone, 30 min after iv injection
[6] = Brain, 2 min after iv injection
[7] = Brain, 30 min after iv injection
[8] = Heart, 2 min after iv injection
[9] = Heart, 30 min after iv injection
[10] = Kidney, 2 min after iv injection
[11] = Kidney, 30 min after iv injection
[12] = Kidney, 1 hr after iv injection
[13] = Kidney, 2 hr after iv injection
[14] = Liver, 2 min after iv injection
[15] = Liver, 30 min after iv injection
[16] = Lung, 30 min after iv injection
[17] = Muscle, 2 min after iv injection
[18] = Muscle, 30 min after iv injection
[19] = Muscle, 1 hr after iv injection
[20] = Muscle, 2 hr after iv injection
[21] = Skin, 30 min after iv injection
[22] = Spleen, 2 min after iv injection
[23] = Spleen, 30 min after iv injection
[24] = Spleen, 1 hr after iv injection
[25] = Spleen, 2 hr after iv injection

T1 sequence (P05067 672-713 limits assumed): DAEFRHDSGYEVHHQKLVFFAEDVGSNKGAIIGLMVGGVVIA
T1 sequence (P05067 672-711 limits assumed): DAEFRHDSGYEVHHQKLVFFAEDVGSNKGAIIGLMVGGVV

Ki [1]: 1 nM
SMILES: CNc1ccc(-c2ccc3cc(OCCOCCOCCO)ccc3c2)cc1 [Compound 13b, 2-(2-(2-(6-(4-(methylamino)phenyl)naphthalen-2-yloxy)ethoxy)ethoxy)ethanol]

Ki [1]: 20 ± 5 nM
SMILES: Nc1ccc2cc(-c3ccc(OCCOCCOCCF)cc3)ccc2c1 [Compound 17a, 6-(4-(2-(2-(2-fluoroethoxy)ethoxy)ethoxy)phenyl)naphthalen-2-amine]

Ki [1]: 27 nM
SMILES: Nc1ccc2cc(-c3ccc(OCCOCCOCCO)cc3)ccc2c1 [Compound 17b, 2-(2-(2-(4-(6-aminonaphthalen-2-yl)phenoxy)ethoxy)ethoxy)ethanol]

Ki [1]: 5.6 nM
SMILES: CN(C)c1ccc2cc(-c3ccc(OCCOCCOCCF)cc3)ccc2c1 [Compound 18a, 6-(4-(2-(2-(2-fluoroethoxy)ethoxy)ethoxy)phenyl)-N,N-dimethylnaphthalen-2-amine]

Ki [1]: 6.5 nM
SMILES: CN(C)c1ccc2cc(-c3ccc(OCCOCCOCCO)cc3)ccc2c1 [Compound 18b, 2-(2-(2-(4-(6-(dimethylamino)naphthalen-2-yl)phenoxy)ethoxy)ethoxy)ethanol]

Ki [1]: 3 nM
SMILES: CNc1ccc2cc(-c3ccc(OCCOCCOCCF)cc3)ccc2c1 [Compound 19a, 6-(4-(2-(2-(2-fluoroethoxy)ethoxy)ethoxy)phenyl)-N-methylnaphthalen-2-amine]

Ki [1]: 6 nM
SMILES: CNc1ccc2cc(-c3ccc(OCCOCCOCCO)cc3)ccc2c1 [Compound 19b, 2-(2-(2-(4-(6-(methylamino)naphthalen-2-yl)phenoxy)ethoxy)ethoxy)ethanol]

Ki [1]: 4.4 nM
SMILES: CN(C)c1ccc(-c2ccc3nc(OCCOCCOCCF)ccc3c2)cc1 [Compound 32a, 4-(2-(2-(2-(2-fluoroethoxy)ethoxy)ethoxy)quinolin-6-yl)-N,N-dimethylbenzenamine]

Ki [1]: 4.7 nM
SMILES: CN(C)c1ccc(-c2ccc3nc(OCCOCCOCCO)ccc3c2)cc1 [Compound 32b, 2-(2-(2-(6-(4-(dimethylamino)phenyl)quinolin-2-yloxy)ethoxy)ethoxy)ethanol]

Ki [1]: 102 ± 32 nM
SMILES: Nc1ccc(-c2ccc3nc(OCCOCCOCCF)ccc3c2)cc1 [Compound 33a, 4-(2-(2-(2-(2-fluoroethoxy)ethoxy)ethoxy)quinolin-6-yl)benzenamine]

Ki [1]: 109 nM
SMILES: Nc1ccc(-c2ccc3nc(OCCOCCOCCO)ccc3c2)cc1 [Compound 33b, 2-(2-(2-(6-(4-aminophenyl)quinolin-2-yloxy)ethoxy)ethoxy)ethanol]

Ki [1]: 5.5 nM
SMILES: CNc1ccc(-c2ccc3nc(OCCOCCOCCF)ccc3c2)cc1 [Compound 34a, 4-(2-(2-(2-(2-fluoroethoxy)ethoxy)ethoxy)quinolin-6-yl)-N-methylbenzenamine]

Ki [1]: 5 nM
SMILES: CNc1ccc(-c2ccc3nc(OCCOCCOCCO)ccc3c2)cc1 [Compound 34b, 2-(2-(2-(6-(4-(methylamino)phenyl)quinolin-2-yloxy)ethoxy)ethoxy)ethanol]

Further lines, the compound ahead of its results:

SMILES: Nc1ccc(-c2ccc3cc(OCCOCCOCCF)ccc3c2)cc1 [Compound 11a, 4-(6-(2-(2-(2-fluoroethoxy)ethoxy)ethoxy)naphthalen-2-yl)benzenamine]
Ki [1]: 12.5 ± 1.2 nM

SMILES: Nc1ccc(-c2ccc3cc(OCCOCCOCCO)ccc3c2)cc1 [Compound 11b, 2-(2-(2-(6-(4-aminophenyl)naphthalen-2-yloxy)ethoxy)ethoxy)ethanol]
Ki [1]: 22 nM

SMILES: CN(C)c1ccc(-c2ccc3cc(OCCOCCOCCF)ccc3c2)cc1 [Compound 12a, 4-(6-(2-(2-(2-fluoroethoxy)ethoxy)ethoxy)naphthalen-2-yl)-N,N-dimethylbenzenamine]
Ki [1]: 3.1 nM

SMILES: Nc1ccc2cc(-c3ccc(O)cc3)ccc2c1 [Compound 16, 4-(6-aminonaphthalen-2-yl)phenol]
Ki [1]: 33.5 ± 11 nM

SMILES: COc1ccc(-c2ccc3cc(N(C)C)ccc3c2)cc1 [Compound 23, 6-(4-methoxyphenyl)-N,N-dimethylnaphthalen-2-amine]
Ki [1]: 1.4 nM

SMILES: CN(C)c1ccc2cc(-c3ccc(O)cc3)ccc2c1 [Compound 24, 4-(6-(dimethylamino)naphthalen-2-yl)phenol]
Ki [1]: 4.2 nM

SMILES: COc1ccc(-c2ccc3cc(O)ccc3c2)cc1 [Compound 25, 6-(4-methoxyphenyl)naphthalen-2-ol]
Ki [1]: 1.5 nM

SMILES: Oc1ccc(-c2ccc3cc(OCCOCCOCCF)ccc3c2)cc1 [Compound 26, 4-(6-(2-(2-(2-fluoroethoxy)ethoxy)ethoxy)naphthalen-2-yl)phenol]
Ki [1]: 16.5 nM

SMILES: Oc1ccc2cc(-c3ccc(OCCOCCOCCF)cc3)ccc2c1 [Compound 28, 6-(4-(2-(2-(2-fluoroethoxy)ethoxy)ethoxy)phenyl)naphthalen-2-ol]
Ki [1]: 16 nM

SMILES: CNc1ccc(-c2ccc3cc(OCCOCCOCCF)ccc3c2)cc1 [[^18F][4-(6-{2-[2-(2-Fluoro-ethoxy)-ethoxy]-ethoxy}-naphthalen-2-yl)-phenyl]-methyl-amine]
% dose/g [2, 3]: 2.08 ± 0.20 % dose/g
% dose/organ [2, 3]: 3.50 ± 0.18 % dose/organ
% dose/g [2, 4]: 1.72 ± 0.29 % dose/g
% dose/organ [2, 4]: 2.99 ± 0.48 % dose/organ
% dose/g ([2]; Blood, 1 hr after iv injection): 1.41 ± 0.33 % dose/g
% dose/organ ([2]; Blood, 1 hr after iv injection): 2.73 ± 0.41 % dose/organ
% dose/g ([2]; Blood, 2 hr after iv injection): 2.22 ± 0.37 % dose/g
% dose/organ ([2]; Blood, 2 hr after iv injection): 3.59 ± 0.53 % dose/organ
% dose/g ([2]; Bone, 2 min after iv injection): 2.14 ± 0.82 % dose/g
% dose/organ ([2]; Bone, 2 min after iv injection): 7.38 ± 3.40 % dose/organ
% dose/g [2, 5]: 0.97 ± 0.03 % dose/g
% dose/organ [2, 5]: 3.36 ± 0.09 % dose/organ
% dose/g ([2]; Bone, 1 hr after iv injection): 1.19 ± 0.21 % dose/g
% dose/organ ([2]; Bone, 1 hr after iv injection): 4.61 ± 0.36 % dose/organ
% dose/g ([2]; Bone, 2 hr after iv injection): 2.18 ± 0.19 % dose/g
% dose/organ ([2]; Bone, 2 hr after iv injection): 7.07 ± 0.57 % dose/organ
% dose/g [2, 6]: 7.26 ± 1.28 % dose/g
% dose/organ [2, 6]: 3.43 ± 0.51 % dose/organ
% dose/g [2, 7]: 2.15 ± 0.25 % dose/g
% dose/organ [2, 7]: 0.95 ± 0.08 % dose/organ
% dose/g ([2]; Brain, 1 hr after iv injection): 1.58 ± 0.18 % dose/g
% dose/organ ([2]; Brain, 1 hr after iv injection): 0.75 ± 0.06 % dose/organ
% dose/g ([2]; Brain, 2 hr after iv injection): 1.91 ± 0.12 % dose/g
% dose/organ ([2]; Brain, 2 hr after iv injection): 0.88 ± 0.06 % dose/organ
% dose/g [2, 8]: 5.44 ± 0.25 % dose/g
% dose/organ [2, 8]: 0.63 ± 0.08 % dose/organ
% dose/g [2, 9]: 2.04 ± 0.30 % dose/g
% dose/organ [2, 9]: 0.23 ± 0.02 % dose/organ
% dose/g ([2]; Heart, 1 hr after iv injection): 1.46 ± 0.24 % dose/g
% dose/organ ([2]; Heart, 1 hr after iv injection): 0.18 ± 0.01 % dose/organ
% dose/g ([2]; Heart, 2 hr after iv injection): 1.79 ± 0.19 % dose/g
% dose/organ ([2]; Heart, 2 hr after iv injection): 0.19 ± 0.03 % dose/organ
% dose/g [2, 10]: 8.88 ± 1.80 % dose/g
% dose/organ [2, 10]: 3.27 ± 0.60 % dose/organ
% dose/g [2, 11]: 3.98 ± 0.64 % dose/g
% dose/organ [2, 11]: 1.45 ± 0.12 % dose/organ
% dose/g [2, 12]: 2.75 ± 0.35 % dose/g
% dose/organ [2, 12]: 1.05 ± 0.25 % dose/organ
% dose/g [2, 13]: 2.52 ± 0.18 % dose/g
% dose/organ [2, 13]: 0.88 ± 0.10 % dose/organ
% dose/g [2, 14]: 19.7 ± 3.24 % dose/g
% dose/organ [2, 14]: 26.5 ± 2.18 % dose/organ
% dose/g [2, 15]: 13.4 ± 1.30 % dose/g
% dose/organ [2, 15]: 17.1 ± 1.54 % dose/organ
% dose/g ([2]; Liver, 1 hr after iv injection): 9.46 ± 1.50 % dose/g
% dose/organ ([2]; Liver, 1 hr after iv injection): 16.3 ± 1.39 % dose/organ
% dose/g ([2]; Liver, 2 hr after iv injection): 11.9 ± 1.87 % dose/g
% dose/organ ([2]; Liver, 2 hr after iv injection): 13.5 ± 1.77 % dose/organ
% dose/g ([2]; Lung, 2 min after iv injection): 5.73 ± 0.19 % dose/g
% dose/organ ([2]; Lung, 2 min after iv injection): 1.08 ± 0.05 % dose/organ
% dose/g [2, 16]: 2.78 ± 0.30 % dose/g
% dose/organ [2, 16]: 0.53 ± 0.10 % dose/organ
% dose/g ([2]; Lung, 1 hr after iv injection): 1.99 ± 0.26 % dose/g
% dose/organ ([2]; Lung, 1 hr after iv injection): 0.41 ± 0.05 % dose/organ
% dose/g ([2]; Lung, 2 hr after iv injection): 2.44 ± 0.37 % dose/g
% dose/organ ([2]; Lung, 2 hr after iv injection): 0.48 ± 0.16 % dose/organ
% dose/g [2, 17]: 1.21 ± 0.98 % dose/g
% dose/organ [2, 17]: 11.8 ± 9.69 % dose/organ
% dose/g [2, 18]: 1.27 ± 0.06 % dose/g
% dose/organ [2, 18]: 12.7 ± 0.64 % dose/organ
% dose/g [2, 19]: 0.92 ± 0.09 % dose/g
% dose/organ [2, 19]: 10.3 ± 0.54 % dose/organ
% dose/g [2, 20]: 0.97 ± 0.06 % dose/g
% dose/organ [2, 20]: 9.00 ± 0.56 % dose/organ
% dose/g ([2]; Skin, 2 min after iv injection): 1.01 ± 0.16 % dose/g
% dose/organ ([2]; Skin, 2 min after iv injection): 3.66 ± 0.74 % dose/organ
% dose/g [2, 21]: 1.90 ± 0.08 % dose/g
% dose/organ [2, 21]: 7.08 ± 0.26 % dose/organ
% dose/g ([2]; Skin, 1 hr after iv injection): 1.56 ± 0.18 % dose/g
% dose/organ ([2]; Skin, 1 hr after iv injection): 6.53 ± 0.12 % dose/organ
% dose/g ([2]; Skin, 2 hr after iv injection): 1.32 ± 0.09 % dose/g
% dose/organ ([2]; Skin, 2 hr after iv injection): 4.60 ± 0.29 % dose/organ
% dose/g [2, 22]: 5.11 ± 0.49 % dose/g
% dose/organ [2, 22]: 0.47 ± 0.03 % dose/organ
% dose/g [2, 23]: 2.12 ± 0.33 % dose/g
% dose/organ [2, 23]: 0.23 ± 0.01 % dose/organ
% dose/g [2, 24]: 1.81 ± 0.17 % dose/g
% dose/organ [2, 24]: 0.23 ± 0.02 % dose/organ
% dose/g [2, 25]: 2.08 ± 0.44 % dose/g
% dose/organ [2, 25]: 0.19 ± 0.03 % dose/organ
